Test [1] deals with T1, Serotonin 3 (5-HT3) receptor (Rattus norvegicus, UniProt P35563+Q9JJ16).
T1 sequence (P35563 whole entry): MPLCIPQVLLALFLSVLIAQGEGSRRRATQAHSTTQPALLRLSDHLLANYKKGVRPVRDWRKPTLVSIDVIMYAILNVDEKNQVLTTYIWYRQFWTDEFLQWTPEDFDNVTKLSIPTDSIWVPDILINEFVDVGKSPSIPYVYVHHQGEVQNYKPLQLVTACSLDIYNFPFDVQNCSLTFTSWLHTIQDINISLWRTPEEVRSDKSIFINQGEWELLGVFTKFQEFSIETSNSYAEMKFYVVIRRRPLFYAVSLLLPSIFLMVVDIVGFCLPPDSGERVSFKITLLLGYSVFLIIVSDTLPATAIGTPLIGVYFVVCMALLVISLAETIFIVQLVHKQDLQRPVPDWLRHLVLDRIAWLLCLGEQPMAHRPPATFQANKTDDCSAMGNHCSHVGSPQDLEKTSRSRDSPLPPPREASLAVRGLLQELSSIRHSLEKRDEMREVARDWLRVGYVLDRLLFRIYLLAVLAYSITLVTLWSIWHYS
T1 sequence (Q9JJ16 whole entry): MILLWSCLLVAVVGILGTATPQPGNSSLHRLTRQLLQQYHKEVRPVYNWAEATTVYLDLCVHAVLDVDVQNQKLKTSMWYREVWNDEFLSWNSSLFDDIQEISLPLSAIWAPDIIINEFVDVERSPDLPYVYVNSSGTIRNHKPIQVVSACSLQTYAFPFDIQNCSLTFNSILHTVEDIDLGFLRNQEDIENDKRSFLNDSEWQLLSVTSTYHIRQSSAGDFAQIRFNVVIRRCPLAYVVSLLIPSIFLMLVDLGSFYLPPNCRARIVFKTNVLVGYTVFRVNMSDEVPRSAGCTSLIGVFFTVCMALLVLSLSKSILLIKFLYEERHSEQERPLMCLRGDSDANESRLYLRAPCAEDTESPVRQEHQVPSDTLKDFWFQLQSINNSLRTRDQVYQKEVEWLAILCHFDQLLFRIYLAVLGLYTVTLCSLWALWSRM
The experiment in a line: Binding affinity to 5-hydroxytryptamine 3 receptor using [3H]GR-65630 as radioligand in rat cortex.

For test [2], the target named is T1, Serotonin 3 (5-HT3) receptor. Description: Binding affinity to 5-hydroxytryptamine 3 receptor using [3H]quipazine as radioligand in rat cortex.
The target of test [3] is T2, Serotonin 3 receptor (5HT3) (Mus musculus) (UniProt Q9JHJ5+P23979). Description: Binding affinity towards 5-hydroxytryptamine 3 receptor was determined by using [3H]-ICS 205-930 as radioligand in mouse N1E 115 cells. In kind it is cell-based.
T2 sequence (P23979 whole entry, looked up): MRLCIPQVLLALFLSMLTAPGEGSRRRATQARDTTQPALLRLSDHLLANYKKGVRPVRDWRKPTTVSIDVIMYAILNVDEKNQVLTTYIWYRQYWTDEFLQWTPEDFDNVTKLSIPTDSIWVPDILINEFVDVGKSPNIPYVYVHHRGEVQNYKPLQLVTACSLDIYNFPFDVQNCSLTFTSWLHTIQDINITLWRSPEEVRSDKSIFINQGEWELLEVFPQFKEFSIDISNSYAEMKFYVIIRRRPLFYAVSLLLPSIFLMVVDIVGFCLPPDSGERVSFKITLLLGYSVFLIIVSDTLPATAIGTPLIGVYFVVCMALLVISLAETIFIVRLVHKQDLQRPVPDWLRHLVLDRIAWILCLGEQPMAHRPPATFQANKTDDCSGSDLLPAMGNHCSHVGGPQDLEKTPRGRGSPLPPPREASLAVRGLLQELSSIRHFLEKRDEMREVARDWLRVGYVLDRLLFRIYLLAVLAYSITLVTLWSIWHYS
T2 sequence (Q9JHJ5 whole entry, looked up): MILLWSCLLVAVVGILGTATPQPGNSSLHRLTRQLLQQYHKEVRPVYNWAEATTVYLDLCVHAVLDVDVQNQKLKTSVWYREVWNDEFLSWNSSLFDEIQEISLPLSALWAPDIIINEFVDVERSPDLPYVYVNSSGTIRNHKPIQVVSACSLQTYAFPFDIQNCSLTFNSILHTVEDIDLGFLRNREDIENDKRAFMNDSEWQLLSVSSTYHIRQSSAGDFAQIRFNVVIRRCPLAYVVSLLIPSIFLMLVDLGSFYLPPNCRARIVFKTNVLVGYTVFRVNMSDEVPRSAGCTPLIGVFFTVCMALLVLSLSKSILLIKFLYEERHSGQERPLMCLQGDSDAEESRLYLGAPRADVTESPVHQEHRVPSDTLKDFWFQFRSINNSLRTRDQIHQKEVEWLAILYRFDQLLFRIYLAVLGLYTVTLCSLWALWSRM
Test [4] deals with Serotonin 3 (5-HT3) receptor. The test is classed as protein-complex assay, Oryctolagus cuniculus.
In test [5] the target is Serotonin 3 (5-HT3) receptor. Description: Potency at neuronal 5-hydroxytryptamine 3 receptors in the rabbit heart. In kind it is protein-complex assay, Oryctolagus cuniculus.
Test [6] has as its target Serotonin 3 (5-HT3) receptor. The experiment in a line: Potency to 5-hydroxytryptamine 3 receptor entirely in guinea pig ileum. The test is classed as tissue-based, Cavia porcellus.
Test [7] concerns the target Serotonin 3 (5-HT3) receptor. The experiment in a line: Potency to 5-hydroxytryptamine 3 receptor using [3H]GR-65630 as radioligand in rat cortex.
For test [8], the target named is Serotonin 3 (5-HT3) receptor. Description: (§1) Potency at neuronal 5-hydroxytryptamine 3 receptor in the rabbit heart. The test is classed as protein-complex assay, Oryctolagus cuniculus.
The target in test [9] is T2, Serotonin 3 receptor (5HT3) (Mus musculus). The description is as §1. The test is classed as protein assay.

The values that follow come from ChEMBL document CHEMBL1124788, “Conformation-activity relationship study of 5-HT3 receptor antagonists and a definition of a model for this receptor site” (J Med Chem, 1990).

The term Ki denotes the dissociation constant of the complex between target and ligand, obtained from inhibition or displacement. Lower therefore signals a stronger hold on the target. The term pKD denotes −log10 of the KD, conventionally taken in molar units. The term pA2 denotes a measure of antagonist potency on a negative log scale. Read a high pA2 as a more potent antagonist.

Turning to `c1ccc2nc(N3CCNCC3)ccc2c1` [QUIPAZINE], the Ki in [1] was 1.41 nM; in test [2] it was 1 nM. In addition, in test [3], the negative logarithm of the KD (pKD) amounted to 8.69.
As for `COc1cc(N)c(Cl)cc1C(=O)N[C@H]1CCN2CCC[C@@H]1C2`, the pA2 in test [4] turned out to be 8.5; in test [5], 8.9; in [6], 7.6.
Consider `Cc1[nH]cnc1CCC(=O)c1cn(C)c2ccccc12`, for which the “Log Ki” value in test [7] was -8.79.
In the case of `C[N+]1(C)CCC(C(=O)c2c[nH]c3ccccc23)CC1.[I-]`, the pA2 in test [5] amounted to 9.2.
As to `O=C(OC1CC2CCC(C1)N2)c1c[nH]c2ccccc12` (stereo not given), in [3], the pKD turned out to be 9.14.
`Cc1nccn1CC1CCc2c(c3ccccc3n2C)C1=O` (stereo not given): the pKD in test [3] turned out to be 7.9.
`CN1CC(=O)C2CCC(OC(=O)c3c[nH]c4ccccc34)C1C2` (stereo not given) displayed a pA2 in [5] of 9.8.
For `CN1[C@@H]2CC[C@H]1C[C@@H](OC(=O)c1c[nH]c3ccccc13)C2` [TROPISETRON], the Ki in test [1] was 3.16 nM; in test [2] it was 0.603 nM. The compound also showed a pKD in [3] of 9.09.
For `Cc1cc(C)cc(C(=O)OC2CC3CCC(C2)N3C)c1` (stereo not given), the pA2 in [8] is listed as 9.
In the case of `O=C(c1c[nH]c2ccccc12)C1CCNCC1`, the pA2 in test [5] worked out at 8.3.
On to `CCN(CC)CCNC(=O)c1cc(Cl)c(N)cc1OC` [METOCLOPRAMIDE], for which the Ki is 200 nM in test [1] and 229 nM in test [2]. The pA2 in [5] was 7.3. The compound also had a pKD in test [3] of 6.65.
The compound `CN1[C@@H]2CC[C@H]1C[C@H](OC(=O)c1ccccc1)C2` yielded a pA2 in [8] of 7.2.
Compound `COC(=O)[C@@H]1C2CCC(C[C@@H]1OC(=O)c1ccccc1)N2` (stereo not given in full) registered a pA2 in [8] of 7.7.
The compound `CN1[C@@H]2CC[C@H]1C[C@@H](OC(=O)c1cc(Cl)cc(Cl)c1)C2` [BEMESETRON] had a Ki in [1] of 55 nM. In test [3], this compound had a pKD of 8.21.
Compound `CN1C2CCC1CC(OC(=O)c1cn(C)c3ccc(F)cc13)C2` (stereo not given) returned a pKD in test [9] of 9.8.
